Each block holds one compound with its values, some of them ahead of it.
Columns and labels:
Test in all cases: radiometric filter-binding kinase assay
ABL1 (human) = ABL1 (human) (UniProt P00519)
CDK9 CCNT1 (human) = CDK9 CCNT1 (human) (UniProt P50750+O60563)
CSNK1G2 (human) = CSNK1G2 (human) (UniProt P78368)
DDR2 (human) = DDR2 (human) (UniProt Q16832)
EIF2AK3 (human) = EIF2AK3 (human) (UniProt Q9NZJ5)
IRAK1 (human) = IRAK1 (human) (UniProt P51617)
[1] = tested on: OXSR1 (human), O95747 [T185E]
PLK1 (human) = PLK1 (human) (UniProt P53350)
PRKCG (human) = PRKCG (human) (UniProt P05129)
PTK6 (human) = PTK6 (human) (UniProt Q13882)
SIK2 (human) = SIK2 (human) (UniProt Q9H0K1)
SIK3 (human) = SIK3 (human) (UniProt Q9Y2K2)
STK16 (human) = STK16 (human) (UniProt O75716)
STK24 (human) = STK24 (human) (UniProt Q9Y6E0)
STK33 (human) = STK33 (human) (UniProt Q9BYT3)
TEK (human) = TEK (human) (UniProt Q02763)
TESK1 (human) = TESK1 (human) (UniProt Q15569)
TLK1 (human) = TLK1 (human) (UniProt Q9UKI8)
TSSK1B (human) = TSSK1B (human) (UniProt Q9BXA7)
TTBK1 (human) = TTBK1 (human) (UniProt Q5TCY1)
ULK1 (human) = ULK1 (human) (UniProt O75385)
ULK2 (human) = ULK2 (human) (UniProt Q8IYT8)
WNK1 (human) = WNK1 (human) (UniProt Q9H4A3)
ZAP70 (human) = ZAP70 (human) (UniProt P43403)

Sequence of IRAK1 (human) (P51617 whole entry, looked up): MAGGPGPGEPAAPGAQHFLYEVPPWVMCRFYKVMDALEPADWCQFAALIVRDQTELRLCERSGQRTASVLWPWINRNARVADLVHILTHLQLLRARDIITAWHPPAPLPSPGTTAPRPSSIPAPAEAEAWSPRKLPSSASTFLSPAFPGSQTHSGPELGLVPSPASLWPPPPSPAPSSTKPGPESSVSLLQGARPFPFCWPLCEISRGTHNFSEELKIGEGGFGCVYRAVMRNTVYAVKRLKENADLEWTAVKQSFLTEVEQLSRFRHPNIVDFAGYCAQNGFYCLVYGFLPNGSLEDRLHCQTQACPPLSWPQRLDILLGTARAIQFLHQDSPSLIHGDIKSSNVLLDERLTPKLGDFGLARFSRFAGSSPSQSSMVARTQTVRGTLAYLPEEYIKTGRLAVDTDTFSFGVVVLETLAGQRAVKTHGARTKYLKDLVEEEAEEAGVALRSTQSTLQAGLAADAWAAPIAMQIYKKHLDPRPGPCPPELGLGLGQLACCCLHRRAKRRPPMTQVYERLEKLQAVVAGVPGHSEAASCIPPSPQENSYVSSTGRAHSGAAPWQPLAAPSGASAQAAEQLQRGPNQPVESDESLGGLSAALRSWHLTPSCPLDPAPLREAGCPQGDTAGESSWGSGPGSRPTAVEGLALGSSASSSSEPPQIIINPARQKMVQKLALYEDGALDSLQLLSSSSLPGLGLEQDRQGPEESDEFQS
Sequence of STK16 (human) (O75716 whole entry, looked up): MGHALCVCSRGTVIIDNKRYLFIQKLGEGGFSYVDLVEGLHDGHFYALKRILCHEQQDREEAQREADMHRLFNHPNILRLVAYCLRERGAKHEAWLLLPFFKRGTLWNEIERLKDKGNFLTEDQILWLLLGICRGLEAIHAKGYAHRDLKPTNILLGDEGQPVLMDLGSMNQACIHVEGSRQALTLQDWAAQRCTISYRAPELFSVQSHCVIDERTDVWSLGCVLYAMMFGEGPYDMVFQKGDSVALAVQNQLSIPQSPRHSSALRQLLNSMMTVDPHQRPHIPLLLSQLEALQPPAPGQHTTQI
Sequence of STK33 (human) (Q9BYT3 whole entry, looked up): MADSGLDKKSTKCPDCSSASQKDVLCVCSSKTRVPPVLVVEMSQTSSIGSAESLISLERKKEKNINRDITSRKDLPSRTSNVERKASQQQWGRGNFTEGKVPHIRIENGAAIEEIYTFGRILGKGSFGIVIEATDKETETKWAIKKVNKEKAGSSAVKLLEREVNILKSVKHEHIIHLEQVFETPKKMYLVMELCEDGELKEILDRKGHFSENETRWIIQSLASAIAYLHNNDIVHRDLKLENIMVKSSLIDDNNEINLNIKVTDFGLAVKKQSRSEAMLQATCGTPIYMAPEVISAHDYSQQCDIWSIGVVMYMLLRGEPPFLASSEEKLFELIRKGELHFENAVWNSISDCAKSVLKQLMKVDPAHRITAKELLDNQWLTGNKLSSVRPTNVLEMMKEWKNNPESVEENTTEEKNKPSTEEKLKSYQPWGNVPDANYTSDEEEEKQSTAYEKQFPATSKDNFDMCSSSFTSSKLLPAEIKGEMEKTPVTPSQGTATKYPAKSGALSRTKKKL
Sequence of ULK1 (human) (O75385 whole entry, looked up): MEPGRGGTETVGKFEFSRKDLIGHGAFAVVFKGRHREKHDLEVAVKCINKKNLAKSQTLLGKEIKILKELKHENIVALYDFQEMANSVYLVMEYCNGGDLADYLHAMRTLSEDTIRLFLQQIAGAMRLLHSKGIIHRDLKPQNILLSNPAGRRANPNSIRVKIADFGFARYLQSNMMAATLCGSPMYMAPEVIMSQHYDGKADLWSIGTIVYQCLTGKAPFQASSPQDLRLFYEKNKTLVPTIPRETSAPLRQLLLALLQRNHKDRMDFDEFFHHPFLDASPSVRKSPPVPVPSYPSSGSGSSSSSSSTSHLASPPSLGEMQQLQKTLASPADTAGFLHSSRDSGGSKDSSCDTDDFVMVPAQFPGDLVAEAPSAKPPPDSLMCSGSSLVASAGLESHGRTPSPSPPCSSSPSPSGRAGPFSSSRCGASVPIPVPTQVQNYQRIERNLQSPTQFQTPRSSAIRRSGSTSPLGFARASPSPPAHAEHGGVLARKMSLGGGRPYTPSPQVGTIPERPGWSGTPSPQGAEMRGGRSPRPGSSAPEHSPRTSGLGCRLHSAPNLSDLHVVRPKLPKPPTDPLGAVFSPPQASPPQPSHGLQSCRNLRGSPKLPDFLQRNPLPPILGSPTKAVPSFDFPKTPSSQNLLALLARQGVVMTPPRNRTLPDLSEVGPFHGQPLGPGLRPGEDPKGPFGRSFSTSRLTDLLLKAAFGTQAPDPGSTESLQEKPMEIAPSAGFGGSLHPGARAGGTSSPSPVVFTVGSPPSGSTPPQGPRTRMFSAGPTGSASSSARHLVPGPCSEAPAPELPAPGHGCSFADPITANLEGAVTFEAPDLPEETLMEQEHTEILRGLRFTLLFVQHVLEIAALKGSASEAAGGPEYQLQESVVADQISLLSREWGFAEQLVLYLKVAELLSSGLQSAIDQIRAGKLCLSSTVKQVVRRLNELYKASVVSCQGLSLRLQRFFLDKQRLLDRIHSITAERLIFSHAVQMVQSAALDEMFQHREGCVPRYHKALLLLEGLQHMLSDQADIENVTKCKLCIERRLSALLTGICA
Sequence of TSSK1B (human) (Q9BXA7 whole entry, looked up): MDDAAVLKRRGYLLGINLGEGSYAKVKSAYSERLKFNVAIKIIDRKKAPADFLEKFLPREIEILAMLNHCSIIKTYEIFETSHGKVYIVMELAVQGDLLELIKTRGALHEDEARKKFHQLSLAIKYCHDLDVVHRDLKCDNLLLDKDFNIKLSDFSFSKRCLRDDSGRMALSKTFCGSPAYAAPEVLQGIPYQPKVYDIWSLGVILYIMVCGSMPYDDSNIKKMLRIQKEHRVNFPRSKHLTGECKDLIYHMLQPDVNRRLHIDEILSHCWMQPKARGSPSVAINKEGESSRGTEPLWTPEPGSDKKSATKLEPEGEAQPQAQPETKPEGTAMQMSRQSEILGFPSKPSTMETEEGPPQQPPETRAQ
Sequence of ABL1 (human) (P00519 whole entry, looked up): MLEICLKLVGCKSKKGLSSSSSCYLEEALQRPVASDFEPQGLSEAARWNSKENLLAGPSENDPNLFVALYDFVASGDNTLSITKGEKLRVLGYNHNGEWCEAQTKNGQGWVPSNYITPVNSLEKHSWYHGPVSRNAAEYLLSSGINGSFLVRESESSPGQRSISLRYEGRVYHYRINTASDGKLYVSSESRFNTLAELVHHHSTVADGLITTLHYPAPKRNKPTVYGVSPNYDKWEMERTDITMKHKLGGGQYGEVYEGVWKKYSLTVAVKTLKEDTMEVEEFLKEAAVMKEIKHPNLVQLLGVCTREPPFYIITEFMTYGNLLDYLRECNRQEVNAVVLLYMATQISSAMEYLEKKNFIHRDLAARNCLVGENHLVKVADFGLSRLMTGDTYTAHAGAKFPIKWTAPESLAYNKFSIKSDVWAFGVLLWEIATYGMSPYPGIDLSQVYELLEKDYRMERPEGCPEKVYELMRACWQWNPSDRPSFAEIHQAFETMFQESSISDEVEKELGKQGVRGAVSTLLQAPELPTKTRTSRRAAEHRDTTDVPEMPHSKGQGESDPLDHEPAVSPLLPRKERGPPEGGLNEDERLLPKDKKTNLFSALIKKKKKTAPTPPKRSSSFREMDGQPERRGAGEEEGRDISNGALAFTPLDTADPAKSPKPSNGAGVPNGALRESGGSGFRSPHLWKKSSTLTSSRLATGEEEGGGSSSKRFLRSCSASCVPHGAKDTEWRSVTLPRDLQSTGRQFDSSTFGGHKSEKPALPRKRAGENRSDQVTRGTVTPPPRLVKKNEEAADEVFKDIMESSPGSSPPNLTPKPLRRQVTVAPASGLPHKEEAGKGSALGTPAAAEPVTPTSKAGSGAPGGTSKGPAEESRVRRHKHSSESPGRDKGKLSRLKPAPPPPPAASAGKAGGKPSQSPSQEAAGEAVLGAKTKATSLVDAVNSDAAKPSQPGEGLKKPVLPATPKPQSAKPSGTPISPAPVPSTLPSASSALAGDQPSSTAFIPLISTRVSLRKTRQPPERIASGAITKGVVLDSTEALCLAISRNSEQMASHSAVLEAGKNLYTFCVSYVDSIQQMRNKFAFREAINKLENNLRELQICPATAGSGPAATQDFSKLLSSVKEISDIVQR
Sequence of SIK2 (human) (Q9H0K1 whole entry, looked up): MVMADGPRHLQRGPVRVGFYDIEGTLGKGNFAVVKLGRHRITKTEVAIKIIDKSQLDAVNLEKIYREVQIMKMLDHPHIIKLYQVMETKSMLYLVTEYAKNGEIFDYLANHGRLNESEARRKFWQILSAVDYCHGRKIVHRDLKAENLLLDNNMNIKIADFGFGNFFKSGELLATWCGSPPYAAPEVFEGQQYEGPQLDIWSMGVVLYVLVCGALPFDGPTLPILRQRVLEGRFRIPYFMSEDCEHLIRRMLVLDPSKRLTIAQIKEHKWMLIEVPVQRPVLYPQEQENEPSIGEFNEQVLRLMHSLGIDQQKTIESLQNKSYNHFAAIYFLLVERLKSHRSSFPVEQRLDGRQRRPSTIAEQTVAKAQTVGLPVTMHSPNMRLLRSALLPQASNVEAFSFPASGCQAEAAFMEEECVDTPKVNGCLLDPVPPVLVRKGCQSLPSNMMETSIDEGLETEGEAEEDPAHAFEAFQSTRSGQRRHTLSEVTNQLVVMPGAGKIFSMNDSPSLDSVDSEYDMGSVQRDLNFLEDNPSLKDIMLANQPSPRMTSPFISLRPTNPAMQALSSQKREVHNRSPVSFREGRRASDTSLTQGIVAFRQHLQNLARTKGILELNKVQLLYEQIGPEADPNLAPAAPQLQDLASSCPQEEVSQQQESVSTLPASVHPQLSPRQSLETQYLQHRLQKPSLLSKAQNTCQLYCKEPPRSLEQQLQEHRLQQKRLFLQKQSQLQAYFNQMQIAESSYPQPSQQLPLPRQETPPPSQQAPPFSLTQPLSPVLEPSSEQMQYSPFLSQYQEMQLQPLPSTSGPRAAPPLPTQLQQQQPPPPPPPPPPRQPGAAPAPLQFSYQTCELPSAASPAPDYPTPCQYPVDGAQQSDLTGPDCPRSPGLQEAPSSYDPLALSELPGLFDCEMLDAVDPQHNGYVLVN

residual activity (ABL1 (human); compound 0.01 µM): 96%
residual activity (ABL1 (human); compound 0.1 µM): 97%
residual activity (ABL1 (human); compound 1.0 µM): 105%
residual activity (CDK9 CCNT1 (human); compound 0.01 µM): 97%
residual activity (CDK9 CCNT1 (human); compound 0.1 µM): 117%
residual activity (CDK9 CCNT1 (human); compound 1.0 µM): 111%
residual activity (CSNK1G2 (human); compound 0.01 µM): 100%
residual activity (CSNK1G2 (human); compound 0.1 µM): 100%
residual activity (CSNK1G2 (human); compound 1.0 µM): 109%
residual activity (DDR2 (human); compound 0.01 µM): 91%
residual activity (DDR2 (human); compound 0.1 µM): 113%
residual activity (EIF2AK3 (human); compound 0.01 µM): 105%
residual activity (EIF2AK3 (human); compound 0.1 µM): 92%
residual activity (IRAK1 (human); compound 0.01 µM): 97%
residual activity (IRAK1 (human); compound 0.1 µM): 97%
residual activity ([1]; compound 0.01 µM): 104%
residual activity ([1]; compound 0.1 µM): 99%
residual activity (PLK1 (human); compound 0.01 µM): 102%
residual activity (PLK1 (human); compound 0.1 µM): 107%
residual activity (PLK1 (human); compound 1.0 µM): 114%
residual activity (PRKCG (human); compound 0.01 µM): 103%
residual activity (PRKCG (human); compound 0.1 µM): 109%
residual activity (PRKCG (human); compound 1.0 µM): 89%
residual activity (PTK6 (human); compound 0.01 µM): 101%
residual activity (PTK6 (human); compound 1.0 µM): 48%
residual activity (SIK2 (human); compound 0.01 µM): 106%
residual activity (SIK2 (human); compound 0.1 µM): 107%
residual activity (SIK2 (human); compound 1.0 µM): 88%
residual activity (SIK3 (human); compound 0.01 µM): 102%
residual activity (SIK3 (human); compound 0.1 µM): 93%
residual activity (SIK3 (human); compound 1.0 µM): 94%
residual activity (STK16 (human); compound 0.01 µM): 94%
residual activity (STK16 (human); compound 1.0 µM): 102%
residual activity (STK24 (human); compound 0.01 µM): 106%
residual activity (STK24 (human); compound 0.1 µM): 104%
residual activity (STK24 (human); compound 1.0 µM): 114%
residual activity (STK33 (human); compound 0.01 µM): 113%
residual activity (STK33 (human); compound 0.1 µM): 105%
residual activity (STK33 (human); compound 1.0 µM): 113%
residual activity (TEK (human); compound 0.01 µM): 122%
residual activity (TEK (human); compound 0.1 µM): 101%
residual activity (TEK (human); compound 1.0 µM): 122%
residual activity (TESK1 (human); compound 0.1 µM): 107%
residual activity (TESK1 (human); compound 1.0 µM): 92%
residual activity (TLK1 (human); compound 0.01 µM): 95%
residual activity (TLK1 (human); compound 0.1 µM): 101%
residual activity (TSSK1B (human); compound 0.01 µM): 112%
residual activity (TSSK1B (human); compound 0.1 µM): 110%
residual activity (TSSK1B (human); compound 1.0 µM): 99%
residual activity (TTBK1 (human); compound 0.01 µM): 89%
residual activity (TTBK1 (human); compound 0.1 µM): 82%
residual activity (ULK1 (human); compound 0.01 µM): 91%
residual activity (ULK1 (human); compound 0.1 µM): 88%
residual activity (ULK1 (human); compound 1.0 µM): 92%
residual activity (ULK2 (human); compound 0.01 µM): 94%
residual activity (ULK2 (human); compound 0.1 µM): 96%
residual activity (WNK1 (human); compound 0.01 µM): 94%
residual activity (WNK1 (human); compound 0.1 µM): 107%
residual activity (WNK1 (human); compound 1.0 µM): 106%
residual activity (ZAP70 (human); compound 0.1 µM): 101%
residual activity (ZAP70 (human); compound 1.0 µM): 103%
Structure (SMILES): COc1cc(O)c2c(c1)[C@H]1OC1C[C@H](O)[C@H](O)C(=O)/C=C\C[C@H](C)OC2=O (some centres not stated)

residual activity (ABL1 (human); compound 1.0 µM): 116%
residual activity (ABL1 (human); compound 10.0 µM): 100%
residual activity (CDK9 CCNT1 (human); compound 1.0 µM): 92%
residual activity (CDK9 CCNT1 (human); compound 10.0 µM): 100%
residual activity (CSNK1G2 (human); compound 1.0 µM): 101%
residual activity (CSNK1G2 (human); compound 10.0 µM): 97%
residual activity (DDR2 (human); compound 1.0 µM): 107%
residual activity (EIF2AK3 (human); compound 1.0 µM): 100%
residual activity (EIF2AK3 (human); compound 10.0 µM): 100%
residual activity (IRAK1 (human); compound 1.0 µM): 105%
residual activity (IRAK1 (human); compound 10.0 µM): 106%
residual activity ([1]; compound 1.0 µM): 112%
residual activity ([1]; compound 10.0 µM): 103%
residual activity (PLK1 (human); compound 0.01 µM): 95%
residual activity (PLK1 (human); compound 0.1 µM): 113%
residual activity (PRKCG (human); compound 10.0 µM): 87%
residual activity (PTK6 (human); compound 1.0 µM): 127%
residual activity (PTK6 (human); compound 10.0 µM): 116%
residual activity (SIK2 (human); compound 1.0 µM): 106%
residual activity (SIK2 (human); compound 10.0 µM): 78%
residual activity (SIK3 (human); compound 1.0 µM): 76%
residual activity (SIK3 (human); compound 10.0 µM): 58%
residual activity (STK16 (human); compound 1.0 µM): 105%
residual activity (STK16 (human); compound 10.0 µM): 104%
residual activity (STK24 (human); compound 1.0 µM): 110%
residual activity (STK24 (human); compound 10.0 µM): 110%
residual activity (STK33 (human); compound 1.0 µM): 89%
residual activity (STK33 (human); compound 10.0 µM): 43%
residual activity (TEK (human); compound 1.0 µM): 105%
residual activity (TEK (human); compound 10.0 µM): 76%
residual activity (TESK1 (human); compound 1.0 µM): 91%
residual activity (TESK1 (human); compound 10.0 µM): 101%
residual activity (TLK1 (human); compound 1.0 µM): 101%
residual activity (TLK1 (human); compound 10.0 µM): 115%
residual activity (TSSK1B (human); compound 1.0 µM): 88%
residual activity (TSSK1B (human); compound 10.0 µM): 64%
residual activity (TTBK1 (human); compound 1.0 µM): 112%
residual activity (TTBK1 (human); compound 10.0 µM): 99%
residual activity (WNK1 (human); compound 1.0 µM): 109%
residual activity (WNK1 (human); compound 10.0 µM): 104%
residual activity (ZAP70 (human); compound 1.0 µM): 98%
Structure (SMILES): CNc1nc(-c2ccc3c(N)n[nH]c3c2)cc(N2C[C@@H](C(=O)NC3CCCCC3)CC[C@H]2C)n1

— the kinase profiling compilation of Christmann-Franck et al. (2016)
